Reference: ChEMBL document CHEMBL5724914, “Linking interpersonal differences in gut microbiota composition and drug biotransformation activity” (2024)

Assays:
[1] = The drug is tested on Z-025 corresponding to rabbit gut metagenome with ENA study accession number: PRJEB37062 and ENA sample accession number: ERS12561824 for biotransformation under anaerobic condition. The drug concentrations were measured over 9 timepoints collected between 0 and 24 hours of incubation by liquid-chromatography-coupled mass spectrometry (LC–MS); conditions: 2 µM
[2] = The drug is tested on Z-024 corresponding to pig gut metagenome with ENA study accession number: PRJEB37062 and ENA sample accession number: ERS12561823 for biotransformation under anaerobic condition. The drug concentrations were measured over 9 timepoints collected between 0 and 24 hours of incubation by liquid-chromatography-coupled mass spectrometry (LC–MS); conditions: 2 µM
[3] = The drug is tested on Z-013 corresponding to rabbit gut metagenome with ENA study accession number: PRJEB37062 and ENA sample accession number: ERS12561813 for biotransformation under anaerobic condition. The drug concentrations were measured over 9 timepoints collected between 0 and 24 hours of incubation by liquid-chromatography-coupled mass spectrometry (LC–MS); conditions: 2 µM
[4] = The drug is tested on Z-011 corresponding to mouse gut metagenome with ENA study accession number: PRJEB37062 and ENA sample accession number: ERS12561811 for biotransformation under anaerobic condition. The drug concentrations were measured over 9 timepoints collected between 0 and 24 hours of incubation by liquid-chromatography-coupled mass spectrometry (LC–MS); conditions: 2 µM
[5] = The drug is tested on Z-004 corresponding to metagenome with ENA study accession number: PRJEB37062 and ENA sample accession number: ERS12561804 for biotransformation under anaerobic condition. The drug concentrations were measured over 9 timepoints collected between 0 and 24 hours of incubation by liquid-chromatography-coupled mass spectrometry (LC–MS); conditions: 2 µM
[6] = The drug is tested on WLS-052 corresponding to human gut metagenome with ENA study accession number: PRJEB37062 and ENA sample accession number: ERS12561747 for biotransformation under anaerobic condition. The drug concentrations were measured over 9 timepoints collected between 0 and 24 hours of incubation by liquid-chromatography-coupled mass spectrometry (LC–MS); conditions: 2 µM
[7] = human gut metagenome, 24 h, 2 µM
[8] = human gut metagenome, 24 h, 2 µM; remark: listed apart in the source
[9] = human gut metagenome, 24 h, 2 µM; remark: listed apart in the source
Also: call rule not given here.

Row | SMILES | Bacterial Biotransformation [1] | Bacterial Biotransformation [2] | Bacterial Biotransformation [3] | Bacterial Biotransformation [4] | Bacterial Biotransformation [5] | Bacterial Biotransformation [6] | Bacterial Biotransformation [7] | Bacterial Biotransformation [8] | Bacterial Biotransformation [9]
1 | Cc1ccc(S(=O)(=O)NC(=O)NN2CCCCCC2)cc1 [TOLAZAMIDE] | Compound metabolized | Compound metabolized | Compound metabolized | Compound NOT metabolized | Compound metabolized | Compound metabolized | Compound NOT metabolized | Compound metabolized | Compound metabolized
2 | CCOC(=O)[C@H](CCc1ccccc1)N[C@@H](C)C(=O)N1[C@H](C(=O)O)C[C@H]2CCCC[C@@H]21 [TRANDOLAPRIL] | Compound NOT metabolized | Compound metabolized | Compound NOT metabolized | Compound NOT metabolized | Compound metabolized | Compound metabolized | Compound NOT metabolized | Compound metabolized | Compound metabolized
3 | CC(CN(C)C)CN1c2ccccc2CCc2ccccc21.O=C(O)/C=C\C(=O)O (stereo not given) [TRIMIPRAMINE MALEATE] | Compound NOT metabolized | Compound metabolized | Compound NOT metabolized | Compound NOT metabolized | Compound NOT metabolized | Compound NOT metabolized | Compound metabolized | Compound NOT metabolized | Compound metabolized
4 | CC(=O)CC(c1ccccc1)c1c(O)c2ccccc2oc1=O (stereo not given) [WARFARIN] | Compound metabolized | Compound metabolized | Compound metabolized | Compound NOT metabolized | Compound metabolized | Compound metabolized | Compound metabolized | Compound metabolized | Compound metabolized
5 | Cc1ccc(-c2nc3ccc(C)cn3c2CC(=O)N(C)C)cc1 [ZOLPIDEM] | Compound NOT metabolized | Compound NOT metabolized | Compound NOT metabolized | Compound NOT metabolized | Compound NOT metabolized | Compound NOT metabolized | Compound NOT metabolized | Compound NOT metabolized | Compound metabolized
